This note sets out measurements from US10273283B2, “Modified integrin polypeptides, modified integrin polypeptide dimers, and uses thereof” (THE CHILDREN'S MEDICAL CENTER CORPORATION, priority 2014, dated 2019).

Ends that are not written are not given here.

In experiment [1] the target is T1, integrin αvβ6 headpiece (Homo sapiens, UniProt P06756+P18564, I287C/M430C).
T1 construct: The αv headpiece (residues 1-594) with M400C mutation was followed by a 3C protease site; β6 headpiece residues 1-474 with I270C or β3 headpiece residues 1-472 with Q267C were followed by the 3C site; 3C protease site (C, cleaved yes); ACID coiled-coil (C, cleaved yes); Strep-II tag (C, cleaved yes); His tag (C, cleaved yes); 3C site (C, cleaved yes); BASE coiled-coil (C, cleaved yes); made in house; host or cells: HEK293s Gnt I- cells
Kind of experiment: Saturation binding of fluorescence probe to αvβ6 headpiece by fluorescence anisotropy. Particulars: buffer at indicated pH, FIG. 2C. Here is the method:
A fluorescence probe for integrin αvβ6, the sequence of which is FITC-[…] (SEQ ID NO: 68), was synthesized. […] By competition binding assay, the affinities of Different Ligands were Measured.
Fluorescence anisotropy was in 150 mM NaCl, 1 mM Mg^2+/Ca^2+, 20 mM HEPES, pH 7.4 or buffer at indicated pH with 5 nM fluorescence probe (FITC-pro-TGF-β3 peptide, FITC-[…] (SEQ ID NO: 68)). Binding affinities were calculated as described in Ref. 23. In saturation binding assays, the anisotropy of the fluorescence probe was measured while αvβ6 headpiece (starting at 2.67 μM) or αvβ3 headpiece (starting at 75 μM) was serially diluted in 3-fold decrements. Competition binding assays used 200 nM αvβ6 or 4 μM αvβ3 headpiece, 5 nM of fluorescence probe, and competing peptide serially diluted in 3-fold decrement from 500 μM to 0.5 nM.

The target in experiment [2] is T2, αvβ3 headpiece (Homo sapiens, UniProt P05106+P06756, M430C/Q293C).
T2 construct: The αv headpiece (residues 1-594) with M400C mutation was followed by a 3C protease site; β6 headpiece residues 1-474 with I270C or β3 headpiece residues 1-472 with Q267C were followed by the 3C site; 3C protease site (C, cleaved yes); ACID coiled-coil (C, cleaved yes); Strep-II tag (C, cleaved yes); His tag (C, cleaved yes); 3C site (C, cleaved yes); BASE coiled-coil (C, cleaved yes); made in house; host or cells: HEK293s Gnt I- cells
The experiment can be described thus: Competition binding with FITC-[…] by fluorescence anisotropy, αvβ3 headpiece. Particulars: FIG. 1D. Here is the method: (§1) Ligands bind to the integrin headpiece, which contains the α-subunit β-propeller domain and thigh domain, and the β-subunit βI, hybrid, PSI, and EGF1 domain. […] (SEQ ID NO: 68), peptide affinity for the αvβ6 and αvβ3 headpiece was measured with fluorescence anisotropy.
(§2) Binding affinities were calculated as described in Ref. 23. […] Competition binding assays used 200 nM αvβ6 or 4 μM αvβ3 headpiece, 5 nM of fluorescence probe, and competing peptide serially diluted in 3-fold decrement from 500 μM to 0.5 nM.
(Fluorescence polarisation rises when a labelled molecule tumbles more slowly, as on binding a larger partner.)

The target of experiment [3] is T3, αvβ6 headpiece (Homo sapiens, UniProt P06756+P18564, I287C/M430C).
T3 construct: The αv headpiece (residues 1-594) with M400C mutation was followed by a 3C protease site; β6 headpiece residues 1-474 with I270C or β3 headpiece residues 1-472 with Q267C were followed by the 3C site; 3C protease site (C, cleaved yes); ACID coiled-coil (C, cleaved yes); Strep-II tag (C, cleaved yes); His tag (C, cleaved yes); 3C site (C, cleaved yes); BASE coiled-coil (C, cleaved yes); made in house; host or cells: HEK293s Gnt I- cells
The experiment can be described thus: Competition binding with FITC-[…] by fluorescence anisotropy, αvβ6 headpiece. Particulars: FIG. 1C. As for the experimental part: as §1, §2

As for “GRGDLGRLK [pro-TGF-β3 nonapeptide, GRGDLGRLK (SEQ ID NO: 75)]”, in experiment [1], the “Effect of pH on affinity of αvβ6 for the peptide” value was “sharp decrease in affinity between pH 7 and 6”. The “Fold lower affinity for αvβ3 than for αvβ6” value in experiment [2] is on record as 1,000 fold. Regarding TSGDQKTIK [pro-TGF-β2 peptide], the “Fold lower affinity for αvβ6 than the pro-TGF-β1/β3 peptides” value in experiment [3] was 1,000 fold.
